Literature values as cited in patent US20030124524A1, “Screening assays for identifying modulators of the inflammatory or immune response” (priority 2000, published 2003).
Where two headings read alike, the source gives them in different places.

## rhIL-1ra: recombinant human IL-1 receptor antagonist protein, useful for treatment of rheumatoid arthritis in a genotype-dependent manner
Patients carrying at least one IL-1A (+4845) allele 2 (and alleles in linkage disequilibrium)
  response to treatment of rheumatoid arthritis: substantial and significant response
Patients homozygous for IL-1A (+4845) allele 1
  response to treatment of rheumatoid arthritis: response no better than placebo
